Data on 4 compounds can be found in patent US20100105021A1, “STABILISATION OF BIOLOGICAL CELL MARKERS” (THE UNIVERSITY OF NOTTINGHAM, priority 2007, published 2010).

In experiment [1] the test system is platelet activation marker CD62P (P-selectin) on platelets. Kind of experiment: Flow cytometric analysis of CD62P expression in diluted blood stimulated with a platelet stimulant and then fixed. It counts as cell-based, human. The conditions noted are these: then fixed; for percentage of gated cells in P3 (% parent), CD62P: gate P3 set at 1% with IgG control, CD61-positive platelets; for median fluorescence of CD62P (P1 AND P2): whole population of CD61 positive cells, IgG control 2.
Experimental: The inventors then set out to test the efficacy of the platelet stabilising composition by determining the expression levels of the platelet activation marker, CD62P (ie P-selectin), using flow cytometry.
Initially, an experiment was carried out in order to measure the level of expression of the platelet activation marker, CD62P, by flow cytometry in an IgG control sample. […] Platelets were gated in both P1 (top, centre in FIG. 1) and P2 (top, right in FIG. 1) in plots of a platelet identifier antibody, CD61-PerCP, against both side scatter (SSC) and forward scatter (FSC).
Approximately 3,000 CD61-positive platelet events were recorded. The CD61-positive cells were then drawn on a dot plot of CD62P against SSC (centre of FIG. 1). A frequency histogram of CD62P fluorescence against cell count was then used to quantify the percentage of cells from the parent population that were present in an interval gate P3 (bottom, left of FIG. 1). […] The gate was set at 1% using the appropriate IgG control sample and recorded in the statistics box (bottom right of FIG. 1). The median fluorescence of CD62P was also recorded for the whole population of CD61 positive cells (P1 AND P2).
Flow cytometric analysis was carried out to determine CD62P expression in an unstimulated sample of blood diluted with saline alone and then fixed.
Flow cytometric analysis was carried out to determine CD62P expression in a diluted sample of blood stimulated with adenosine diphosphate (ADP) and then fixed.
Flow cytometric analysis was carried out to determine CD62P expression in a diluted sample of blood stimulated with the thromboxane mimetic U46619 and then fixed.
Flow cytometric analysis was carried out to determine CD62P expression in a diluted sample of blood stimulated with thrombin receptor activating peptide (TRAP) and then fixed.

Experiment [2] has as its system platelet activation marker CD62P. The conditions noted are these: both groups where aspirin was added (healthy volunteers, patients on aspirin).
Experimental: Blood samples were obtained from (a) a group of healthy volunteers who were not being treated with aspirin, and (b) a group of patients who were on aspirin therapy. A CD62P stimulant combination of arachidonic acid and epinephrine, or arachidonic acid and epinephrine, in the presence of aspirin (as a control), were added to each blood sample for 4 minutes, followed by the stabilisation composition of the invention.

As to `Nc1ncnc2c1ncn2[C@@H]1O[C@H](COP(=O)(O)OP(=O)(O)O)[C@@H](O)[C@H]1O` [ADP, adenosine diphosphate], in experiment [1], the “percentage of gated cells in P3 (% parent), CD62P” value is listed as 70.8% and the “median fluorescence of CD62P (P1 AND P2)” value amounted to 365. As for `CC(=O)Oc1ccccc1C(=O)O` [aspirin], the “inhibition of CD62P expression” value in experiment [2] is listed as “completely inhibited”.

As to “thrombin receptor activating peptide [TRAP]”, in experiment [1], the “percentage of gated cells in P3 (% parent), CD62P” value was determined as 97.5% and the “median fluorescence of CD62P (P1 AND P2)” value is on record as 1646. For `CCCCC[C@H](O)/C=C/[C@@H]1[C@@H](C/C=C\CCCC(=O)O)[C@H]2CO[C@@H]1C2` [U46619], in that order: 95.3% and 1191.
